These results are taken from patent US9480259B2, “Pyrazolopyrans having herbicidal and pharmaceutical properties” (BASF SE, priority 2012, dated 2016).

The target in this assay is Arabidopsis thaliana SHMT. As to the kind of experiment: SHMT activity assay (ED50 SHMT), coupled with N5,N10-CH2-THF dehydrogenase, NADH at 340 nm. In kind it is biochemical. The procedure:
Determination of the ED50 SHMT was carried out as described hereinunder.
Purification of Arabidopsis thaliana SHMT
The following buffers were used during the purification protocol:
Buffer A (Lysis and Wash Buffer): • 20 mM Na-Phosphat (pH 7,4) • 500 mM NaCI • 40 mM Imidazole • 1.0 mM L-Serine • 0.5 mM Pyridoxal-5-phosphate • 0.5 mM DTT
Buffer B (Elution Buffer): • 20 mM Na-Phosphat (pH 7,4) • 500 mM NaCl • 250 mM Imidazole • 1.0 mM L-Serine • 0.5 mM Pyridoxal-5-phosphate • 0.5 mM DTT
All procedures were conducted at 4° C. or on ice. Pellets were suspended in Buffer A containing 1 mg/ml DNAse +Complete EDTA-free protease inhibitor tablet. Cells were lysed using sonication or a French Press device, using standard settings. Lysis was centrifuged at 40000×g for 25 minutes. The supernatant was filtered (0.22 μM) before loading onto a Ni-NTA column.
A gravity flow column containing Ni-NTA resin was equilibrated with 10 CV Buffer A and loaded with filtered cell lysate. The column was then washed with 10 CV Buffer A. Elution was afforded using Buffer B and collected manually as mini-factions. EDTA was added after elution to a final concentration of 1 mM. Fractions were pooled on the basis of the correct band for SHMT visualised via SDS-PAGE and staining.
SHMT Assay Buffer: • 50 mM KH2PO4 (pH 7,4) • 2.0 mM NAD+ • 7.5 mM DTT • 0.3 mM Tetrahydrofolic acid • 4% DMSO
Reaction Start: 20 mM L-Serine
The rate of N5,N10-CH2-THF formation catalyzed by SHMT was monitored at 340 nm by coupling with excess N5,N10-CH2-THF dehydrogenase, which converts NAD+to NADH. Reactions were initiated by adding 20 mM L-Serine. Inhibition of initial velocity was determined by adding various inhibitors of the SHMT reaction and monitored as described. Reactions were measured in a Bio Tek micro titer plate reader following the change in absorption with the formation of NADH for 30 mimnutes.

The mark [1] stands for this setting: Table 2, values given as upper bounds.
Setting [2] is: inhibition of initial velocity of Arabidopsis thaliana SHMT.
[3] abbreviates: Table 2, Arabidopsis thaliana SHMT enzyme assay, values given as upper bounds.
Where [4] appears, read: Arabidopsis thaliana SHMT enzyme assay, values given as upper bounds.

As to `CCOC(=O)COc1ccc(C2(CC)C(C#N)=C(N)Oc3[nH]nc(C)c32)cc1[N+](=O)[O-]` (racemic) [Compound 2.43.], the EC50 under setting [1] is below 1 µM. For `Cc1cccc(-c2ccc(C3(C4CCC4)C(C#N)=C(N)Oc4[nH]nc(C)c43)s2)c1` (stereo not drawn) [Compound 4.29], the 50% effective concentration (EC50) under setting [2] is below 0.01 µM.

In turn, `Cc1n[nH]c2c1C(c1ccc(-c3cccc(Cl)c3)s1)(C1CCC1)C(C#N)=C(N)O2` (stereo not drawn) [Compound 4.6] came in with an EC50 under setting [2] below 0.01 µM.

`COc1c(Cl)cc(C2(C3CCC3)C(C#N)=C(N)Oc3[nH]nc(C)c32)cc1Cl` (stereo not drawn) [Compound 2.292] gave an EC50 under setting [3] below 0.01 µM.

The molecule `Cc1n[nH]c2c1C(c1ccc(Cl)c(OC(F)(F)F)c1)(C1CCC1)C(C#N)=C(N)O2` (stereo not drawn) [Compound 2.289] registered an EC50 under setting [3] below 0.01 µM. Consider `Cc1n[nH]c2c1C(c1cc(Cl)cc(Br)c1)(C1CC1)C(C#N)=C(N)O2` (stereo not drawn) [Compound 2.146.], for which, under setting [1], the EC50 is below 0.1 µM. `Cc1n[nH]c2c1C(c1cc(Cl)cc(CC#N)c1)(C1CCC1)C(C#N)=C(N)O2` (stereo not drawn) [Compound 2.568] registered an EC50 under setting [1] below 0.01 µM.

Take `Cc1n[nH]c2c1C(c1cc(C#N)cc(N(C)C(=O)c3ccc(C(=O)O)cc3)c1)(C(C)C)C(C#N)=C(N)O2` (stereo not drawn) [Compound 2.669]: the EC50 under setting [4] is below 0.1 µM. Molecule `Cc1n[nH]c2c1C(c1cc(C(=O)O)cs1)(C1CCC1)C(C#N)=C(N)O2` (stereo not drawn) [Compound 4.66] gave an EC50 under setting [2] below 1 µM.

Under setting [1], `Cc1n[nH]c2c1C(c1cc(Cl)cc(OCCC(=O)O)c1)(C1CCC1)C(C#N)=C(N)O2` (racemic) [Compound 2.505] displayed an EC50 below 0.01 µM.

In turn, `Cc1n[nH]c2c1C(c1ccc3c(c1)C(F)(F)CCO3)(C1CCC1)C(C#N)=C(N)O2` (stereo not drawn) [Compound 4.18] showed an EC50 under setting [2] below 0.01 µM.

Take `Cc1n[nH]c2c1C(c1cc(Cl)cc(Cl)c1)(C1CCC1)C(C#N)=C(N)O2` (stereo not drawn) [Compound 2.154.]: the EC50 under setting [1] is below 0.01 µM.

On to `Cc1n[nH]c2c1C(c1ccc3c(c1)OCO3)(C1CCC1)C(C#N)=C(N)O2` (stereo not drawn) [Compound 4.44], for which the EC50 under setting [2] is below 0.01 µM. As to `Cc1n[nH]c2c1C(c1cc(I)cc(I)c1)(C1CCC1)C(C#N)=C(N)O2` (stereo not drawn) [Compound 2.308], the EC50 under setting [3] was below 0.01 µM. As to `Cc1n[nH]c2c1C(c1cc(Cl)cc(N(C)C(=O)CCC#N)c1)(C1CCC1)C(C#N)=C(N)O2` (stereo not drawn) [Compound 2.697], the EC50 under setting [4] was below 0.1 µM. In the case of `Cc1n[nH]c2c1C(c1ccc3c(c1)OC(F)(F)O3)(C1(F)COC1)C(C#N)=C(N)O2` (racemic) [Compound 4.84], the EC50 under setting [2] is below 10 µM. With `COc1n[nH]c2c1C(c1cc(C#N)cc(C(F)(F)F)c1)(C1CCC1)C(C#N)=C(N)O2` (stereo not drawn) [Compound 2.390], under setting [3], the EC50 was below 0.01 µM. Take `Cc1n[nH]c2c1C(c1cc(-c3nnn[nH]3)cc(N(C)C(=O)CCCC#N)c1)(C1CCC1)C(C#N)=C(N)O2` (stereo not drawn) [Compound 2.690]: the EC50 under setting [4] is below 1 µM. Take `CSc1ccc(C2(C(C)C)C(C#N)=C(N)Oc3[nH]nc(C)c32)cc1` (stereo not drawn) [Compound 2.123.]: the EC50 under setting [1] was below 0.1 µM. Same read-out and setting: in the case of `CCC1(c2cc(Cl)cc(C#N)c2)C(C#N)=C(N)Oc2[nH]nc(OC)c21` (stereo not drawn) [Compound 2.598] it was below 1 µM; in that of `CCCC1(c2cc(C#N)cc(C(F)(F)F)c2)C(C#N)=C(N)Oc2[nH]nc(CC)c21` (stereo not drawn) [Compound 2.575], below 0.01 µM. The same measure, in the same setting: in the case of `CCC1(c2cc(Cl)cc(Cl)c2)C(C#N)=C(N)Oc2[nH]nc(C3CC3)c21` (stereo not drawn) [Compound 2.133.] it was below 1 µM. Turning to `Cc1n[nH]c2c1C(c1cc(Cl)cc(-c3cccnc3)c1)(C1CCC1)C(C#N)=C(N)O2` (stereo not drawn) [Compound 2.324], under setting [3], the EC50 is below 0.01 µM. Molecule `COC(=O)c1csc(-c2cc(C#N)cc(C3(C4CCC4)C(C#N)=C(N)Oc4[nH]nc(C)c43)c2)c1` (stereo not drawn) [Compound 2.682] yielded a 50% effective concentration (EC50) under setting [4] below 0.01 µM.

Take `Cc1n[nH]c2c1C(c1cc(C#N)cc(-c3ccc(Cl)c(C(=O)O)c3)c1)(C1CCC1)C(C#N)=C(N)O2` (stereo not drawn) [Compound 2.556]: under setting [1], the concentration for a half-maximal effect (EC50) is below 0.01 µM.

Under setting [1], `CCc1n[nH]c2c1C(c1cccc(C(F)(F)F)c1)(C1CCC1)C(C#N)=C(N)O2` (stereo not drawn) [Compound 2.170.] came in with an EC50 below 0.1 µM. The same measure, in the same setting: in the case of `CCCC1(c2cc(C#N)cc(C#N)c2)C(C#N)=C(N)Oc2[nH]nc(C(C)C)c21` (stereo not drawn) [Compound 2.586] it was below 1 µM; in that of `Cc1n[nH]c2c1C(c1cc(C#N)cc(-c3cc(F)c(O)c(F)c3)c1)(C1CCC1)C(C#N)=C(N)O2` (stereo not drawn) [Compound 2.484], below 0.01 µM; in that of `Cc1n[nH]c2c1C(c1cc(Cl)cc(CCC(=O)O)c1)(C1(F)CC1)C(C#N)=C(N)O2` (stereo not drawn) [Compound 2.497], below 0.1 µM. Turning to `Cc1n[nH]c2c1C(c1cc(C#N)cc(N(C)S(=O)(=O)CC#N)c1)(C1CCC1)C(C#N)=C(N)O2` (stereo not drawn) [Compound 2.724], under setting [4], the concentration giving a half-maximal response (EC50) is below 0.1 µM. The same measure, in the same setting: under `Cc1n[nH]c2c1C(c1cc(Cl)cc(Cl)c1)(C(C)(F)F)C(C#N)=C(N)O2` (stereo not drawn) [Compound 2.653] stands below 0.1 µM. Turning to `Cc1n[nH]c2c1C(c1cc(C#N)cc(-c3ccc(C(F)(F)F)cc3)c1)(C1CCC1)C(C#N)=C(N)O2` (stereo not drawn) [Compound 2.326], under setting [3], the EC50 was below 0.01 µM. `COC(=O)CCS(=O)(=O)N(C)c1cc(C#N)cc(C2(C3CCC3)C(C#N)=C(N)Oc3[nH]nc(C)c32)c1` (stereo not drawn) [Compound 2.723]: the EC50 under setting [4] was below 0.1 µM. As for `CCOc1n[nH]c2c1C(c1cc(Br)cc(C#N)c1)(C1(F)CC1)C(C#N)=C(N)O2` (stereo not drawn) [Compound 2.395], the EC50 under setting [3] is below 1 µM. As for `Cc1n[nH]c2c1C(c1cc(C#N)cc(N(C)C(=O)CCc3nnn[nH]3)c1)(C1CCC1)C(C#N)=C(N)O2` (stereo not drawn) [Compound 2.718], the EC50 under setting [4] was below 0.1 µM. Under setting [4], `Cc1n[nH]c2c1C(c1cc(C#N)cc(N(C)S(=O)(=O)CC(=O)O)c1)(C1CCC1)C(C#N)=C(N)O2` (stereo not drawn) [Compound 2.731] gave a 50% effective concentration (EC50) below 0.1 µM. Turning to `COC(=O)c1cc(OC)cc(-c2cc(C#N)cc(C3(C4CCC4)C(C#N)=C(N)Oc4[nH]nc(C)c43)c2)c1` (stereo not drawn) [Compound 2.548], the EC50 under setting [1] is below 0.01 µM. As for `CCC1(c2ccc3c(c2)C(C)(C)CCC3(C)C)C(C#N)=C(N)Oc2[nH]nc(C)c21` (stereo not drawn) [Compound 4.69], under setting [2], the EC50 is below 1 µM. With `COC(=O)c1cc(-c2cc(C#N)cc(C3(C4CCC4)C(C#N)=C(N)Oc4[nH]nc(C)c43)c2)ccc1C(=O)O` (stereo not drawn) [Compound 2.572], under setting [1], the concentration giving a half-maximal response (EC50) is below 0.1 µM. As for `N#CC1=C(N)Oc2[nH]ncc2C1(c1cc(Cl)cc(Cl)c1)C1(F)CCC1` (stereo not drawn) [Compound 2.288], the half-maximal effective concentration (EC50) under setting [3] was below 0.1 µM. Consider `N#CC1=C(N)Oc2[nH]ncc2C1(c1cc(C#N)cc(C#N)c1)C1CCC1` (stereo not drawn) [Compound 2.286], for which the EC50 under setting [3] was below 0.01 µM. Under setting [4], `Cc1n[nH]c2c1C(c1cc(-c3nnn[nH]3)cc(N(C)C(=O)CCC#N)c1)(C1CCC1)C(C#N)=C(N)O2` (stereo not drawn) [Compound 2.668] registered an EC50 below 0.1 µM. Same read-out and setting: in the case of `Cc1n[nH]c2c1C(c1cc(CCCc3nnn[nH]3)cc(-c3nnn[nH]3)c1)(C(C)C)C(C#N)=C(N)O2` (stereo not drawn) [Compound 2.715] it was below 1 µM.

`CCC1(c2cccc(C(F)(F)F)c2)C(C#N)=C(N)Oc2[nH]nc(C)c21` (stereo not drawn) [Compound 2.31.]: the EC50 under setting [1] was below 1 µM.

Under setting [3], `Cc1n[nH]c2c1C(c1cc(Cl)cc(-c3cccs3)c1)(C1CC1)C(C#N)=C(N)O2` (stereo not drawn) [Compound 2.276] showed an EC50 below 1 µM. In turn, `COc1cc(C(=O)O)cc(-c2cc(C#N)cc(C3(C4CCC4)C(C#N)=C(N)Oc4[nH]nc(C)c43)c2)c1` (stereo not drawn) [Compound 2.563] gave an EC50 under setting [1] below 0.01 µM. On the same count and under the same terms, under `CCC1(c2ccc(-c3ccccc3F)cc2)C(C#N)=C(N)Oc2[nH]nc(C)c21` (stereo not drawn) [Compound 2.44.] stands below 1 µM; under `CCC1(c2cc(F)c(O)c(F)c2)C(C#N)=C(N)Oc2[nH]nc(C)c21` (stereo not drawn) [Compound 2.34.], below 10 µM.

The term EC50 denotes the concentration that produces a half-maximal response.
